Data: ChEMBL document CHEMBL3046424, “Growth inhibitory effects on fall armyworm Spodoptera frugiperda of some limonoids isolated from Cedrela spp. (Meliaceae)” (2000)
Converted amounts (≈) assume the structure as drawn.

How the values were obtained:
Assay type in all cases: functional
[1] = tested on: Spodoptera frugiperda; test: Insecticidal activity against Spodoptera frugiperda (fall armyworm) assessed as mortality at 15 ug/ml in artificial diet measured after 7 days (reference value: 8.33%); conditions: 168 h
[2] = tested on: Spodoptera frugiperda; test: Insecticidal activity against Spodoptera frugiperda (fall armyworm) assessed as mortality at 10 ug/ml in artificial diet measured after 7 days (reference value: 8.33%); conditions: 168 h
[3] = tested on: Spodoptera frugiperda; test: Insecticidal activity against Spodoptera frugiperda (fall armyworm) assessed as mean weight gain at 52 ug/ml in artificial diet measured after 7 days (reference value: 469.5 +/- 6.59 mg)
[4] = tested on: Spodoptera frugiperda; test: Insecticidal activity against Spodoptera frugiperda (fall armyworm) assessed as mean emergence at 52 ug/ml in artificial diet (reference value: 83.3 %)
[5] = tested on: Spodoptera frugiperda; test: Insecticidal activity against Spodoptera frugiperda (fall armyworm) assessed as mean pupation at 25 ug/ml in artificial diet (reference value: 87.5 %)
[6] = tested on: Spodoptera frugiperda; test: Insecticidal activity against Spodoptera frugiperda (fall armyworm) assessed as mean weight gain at 39 ug/ml in artificial diet measured after 7 days (reference value: 75.5 +/- 8.24 mg)
[7] = tested on: Spodoptera frugiperda; test: Insecticidal activity against Spodoptera frugiperda (fall armyworm) assessed as mean weight gain at 15 ug/ml in artificial diet measured after 7 days (reference value: 75.5 +/- 8.24 mg)
[8] = tested on: Spodoptera frugiperda; test: Insecticidal activity against Spodoptera frugiperda (fall armyworm) assessed as mortality at 52 ug/ml in artificial diet measured after 7 days (reference value: 8.33%); conditions: 168 h
[9] = tested on: Spodoptera frugiperda; test: Insecticidal activity against Spodoptera frugiperda (fall armyworm) assessed as mean length at 5 ug/ml in artificial diet measured after 7 days (reference value: 28 +/- 4.1 mg)
[10] = tested on: Spodoptera frugiperda; test: Insecticidal activity against Spodoptera frugiperda (fall armyworm) assessed as mean length at 10 ug/ml in artificial diet measured after 7 days (reference value: 28 +/- 4.1 mg)
[11] = tested on: Spodoptera frugiperda; test: Insecticidal activity against Spodoptera frugiperda (fall armyworm) assessed as mean time to pupation at 52 ug/ml in artificial diet (reference value: 22 days)
[12] = tested on: Spodoptera frugiperda; test: Insecticidal activity against Spodoptera frugiperda (fall armyworm) assessed as mortality at 39 ug/ml in artificial diet measured after 7 days (reference value: 8.33%); conditions: 168 h
[13] = tested on: Spodoptera frugiperda; test: Insecticidal activity against Spodoptera frugiperda (fall armyworm) assessed as mean weight gain at 39 ug/ml in artificial diet measured after 7 days (reference value: 469.5 +/- 6.59 mg)
[14] = tested on: Spodoptera frugiperda; test: Insecticidal activity against Spodoptera frugiperda (fall armyworm) assessed as mean length at 52 ug/ml in artificial diet measured after 7 days (reference value: 28 +/- 4.1 mg)
[15] = tested on: Spodoptera frugiperda; test: Insecticidal activity against Spodoptera frugiperda (fall armyworm) assessed as mortality at 5 ug/ml in artificial diet measured after 7 days (reference value: 8.33%); conditions: 168 h
[16] = tested on: Spodoptera frugiperda; test: Insecticidal activity against Spodoptera frugiperda (fall armyworm) assessed as mean pupation at 5 ug/ml in artificial diet (reference value: 87.5 %)
[17] = tested on: Spodoptera frugiperda; test: Insecticidal activity against Spodoptera frugiperda (fall armyworm) assessed as mean length at 10 ug/ml in artificial diet measured after 7 days (reference value: 0.95 +/- 0.2 cm)
[18] = tested on: Spodoptera frugiperda; test: Insecticidal activity against Spodoptera frugiperda (fall armyworm) assessed as mean time to pupation at 25 ug/ml in artificial diet (reference value: 22 days)
[19] = tested on: Spodoptera frugiperda; test: Insecticidal activity against Spodoptera frugiperda (fall armyworm) assessed as mean emergence days at 52 ug/ml in artificial diet (reference value: 33 days)
[20] = tested on: Spodoptera frugiperda; test: Insecticidal activity against Spodoptera frugiperda (fall armyworm) assessed as mean length at 5 ug/ml in artificial diet measured after 7 days (reference value: 0.95 +/- 0.2 cm)
[21] = tested on: Spodoptera frugiperda; test: Insecticidal activity against Spodoptera frugiperda (fall armyworm) assessed as mean weight gain at 5 ug/ml in artificial diet measured after 7 days (reference value: 75.5 +/- 8.24 mg)
[22] = tested on: Spodoptera frugiperda; test: Insecticidal activity against Spodoptera frugiperda (fall armyworm) assessed as mean weight gain at 10 ug/ml in artificial diet measured after 7 days (reference value: 469.5 +/- 6.59 mg)
[23] = tested on: Spodoptera frugiperda; test: Insecticidal activity against Spodoptera frugiperda (fall armyworm) assessed as mean emergence at 5 ug/ml in artificial diet (reference value: 83.3 %)
[24] = tested on: Spodoptera frugiperda; test: Insecticidal activity against Spodoptera frugiperda (fall armyworm) assessed as mean length at 39 ug/ml in artificial diet measured after 7 days (reference value: 28 +/- 4.1 mg)
[25] = tested on: Spodoptera frugiperda; test: Insecticidal activity against Spodoptera frugiperda (fall armyworm) assessed as mean weight gain at 5 ug/ml in artificial diet measured after 7 days (reference value: 469.5 +/- 6.59 mg)
[26] = tested on: Spodoptera frugiperda; test: Insecticidal activity against Spodoptera frugiperda (fall armyworm) assessed as mean length at 25 ug/ml in artificial diet measured after 7 days (reference value: 28 +/- 4.1 mg)
[27] = tested on: Spodoptera frugiperda; test: Insecticidal activity against Spodoptera frugiperda (fall armyworm) assessed as mean length at 15 ug/ml in artificial diet measured after 7 days (reference value: […])
[28] = tested on: Spodoptera frugiperda; test: Insecticidal activity against Spodoptera frugiperda (fall armyworm) assessed as mean pupation at 52 ug/ml in artificial diet (reference value: 87.5 %)
[29] = tested on: Spodoptera frugiperda; test: Insecticidal activity against Spodoptera frugiperda (fall armyworm) assessed as mean length at 25 ug/ml in artificial diet measured after 7 days (reference value: 0.95 +/- 0.2 cm)
[30] = tested on: Spodoptera frugiperda; test: Insecticidal activity against Spodoptera frugiperda (fall armyworm) assessed as mortality at 25 ug/ml in artificial diet measured after 7 days (reference value: 8.33%); conditions: 168 h
[31] = tested on: Spodoptera frugiperda; test: Insecticidal activity against Spodoptera frugiperda (fall armyworm) assessed as mean emergence days at 25 ug/ml in artificial diet (reference value: 33 days)
[32] = tested on: Spodoptera frugiperda; test: Insecticidal activity against Spodoptera frugiperda (fall armyworm) assessed as mean emergence at 25 ug/ml in artificial diet (reference value: 83.3 %)
[33] = tested on: Spodoptera frugiperda; test: Insecticidal activity against Spodoptera frugiperda (fall armyworm) assessed as mean weight gain at 10 ug/ml in artificial diet measured after 7 days (reference value: 75.5 +/- 8.24 mg)
[34] = tested on: Spodoptera frugiperda; test: Insecticidal activity against Spodoptera frugiperda (fall armyworm) assessed as mean length at 15 ug/ml in artificial diet measured after 7 days (reference value: 0.95 +/- 0.2 cm)
[35] = tested on: Spodoptera frugiperda; test: Insecticidal activity against Spodoptera frugiperda (fall armyworm) assessed as mean time to pupation at 5 ug/ml in artificial diet (reference value: 22 days)
[36] = tested on: Spodoptera frugiperda; test: Insecticidal activity against Spodoptera frugiperda (fall armyworm) assessed as mean length at 39 ug/ml in artificial diet measured after 7 days (reference value: 0.95 +/- 0.2 cm)
[37] = tested on: Spodoptera frugiperda; test: Insecticidal activity against Spodoptera frugiperda (fall armyworm) assessed as mortality measured after 7 days; conditions: 168 h
[38] = tested on: Spodoptera frugiperda; test: Insecticidal activity against Spodoptera frugiperda (fall armyworm) assessed as mean weight gain at 15 ug/ml in artificial diet measured after 7 days (reference value: 469.5 +/- 6.59 mg)
[39] = tested on: Spodoptera frugiperda; test: Insecticidal activity against Spodoptera frugiperda (fall armyworm) assessed as mean length at 52 ug/ml in artificial diet measured after 7 days (reference value: 0.95 +/- 0.2 cm)
[40] = tested on: Spodoptera frugiperda; test: Insecticidal activity against Spodoptera frugiperda (fall armyworm) assessed as mean emergence days at 5 ug/ml in artificial diet (reference value: 33 days)
[41] = tested on: Spodoptera frugiperda; test: Insecticidal activity against Spodoptera frugiperda (fall armyworm) assessed as mean weight of pupae at 25 ug/ml in artificial diet (reference value: 281.5 +/- 10.3 mg)
[42] = tested on: Spodoptera frugiperda; test: Insecticidal activity against Spodoptera frugiperda (fall armyworm) assessed as mean weight gain at 25 ug/ml in artificial diet measured after 7 days (reference value: 469.5 +/- 6.59 mg)
[43] = tested on: Spodoptera frugiperda; test: Insecticidal activity against Spodoptera frugiperda (fall armyworm) assessed as mean weight of pupae at 52 ug/ml in artificial diet (reference value: 281.5 +/- 10.3 mg)
[44] = tested on: Spodoptera frugiperda; test: Insecticidal activity against Spodoptera frugiperda (fall armyworm) assessed as mean weight gain at 52 ug/ml in artificial diet measured after 7 days (reference value: 75.5 +/- 8.24 mg)
[45] = tested on: Spodoptera frugiperda; test: Insecticidal activity against Spodoptera frugiperda (fall armyworm) assessed as mean weight gain at 25 ug/ml in artificial diet measured after 7 days (reference value: 75.5 +/- 8.24 mg)
[46] = tested on: Spodoptera frugiperda; test: Insecticidal activity against Spodoptera frugiperda (fall armyworm) assessed as mean weight of pupae at 5 ug/ml in artificial diet (reference value: 281.5 +/- 10.3 mg)

Structure (SMILES): CC(=O)O[C@@H]1C[C@H]2C(C)(C)C(=O)C=C[C@]2(C)[C@H]2CC[C@@]3(C)[C@H](c4ccoc4)OC(=O)[C@H]4O[C@]43[C@@]21C [GEDUNIN]
- mortality at 15 µg/mL [1]: 33.3%
- mortality at 10 µg/mL [2]: 33.3%
- Activity [3]: 2.2 mg
- Activity [4]: 4.17%
- Activity [5]: 16.7%
- Activity [6]: 2.3 mg
- Activity [7]: 3.6 mg
- mortality at 52 µg/mL [8]: 70.8%
- Activity [9]: 2.6 mm
- Activity [10]: 2.9 mm
- Time [11]: 24 days
- mortality at 39 µg/mL [12]: 48.3%
- Activity [13]: 2.8 mg
- Activity [14]: 2.1 mm
- mortality at 5 µg/mL [15]: 25%
- Activity [16]: 20.8%
- Activity [17]: 0.4 cm
- Time [18]: 23 days
- Time [19]: 36 days
- Activity [20]: 0.5 cm
- Activity [21]: 6.12 mg
- Activity [22]: 4.95 mg
- Activity [23]: 17.9%
- Activity [24]: 2 mm
- Activity [25]: 16.12 mg
- Activity [26]: 2.1 mm
- Activity [27]: 2.6 mm
- Activity [28]: 4.17%
- Activity [29]: 0.3 cm
- mortality at 25 µg/mL [30]: 38.3%
- Time [31]: 35 days
- Activity [32]: 16.7%
- Activity [33]: 4.9 mg
- Activity [34]: 0.35 cm
- Time [35]: 22 days
- Activity [36]: 0.25 cm
- LC50 [37]: 39 µg/mL (≈ 80.8 µM)
- Activity [38]: 3.61 mg
- Activity [39]: 0.2 cm
- Time [40]: 33 days
- Activity [41]: 122.4 mg
- Activity [42]: 3.45 mg
- Activity [43]: 52 mg
- Activity [44]: 1.9 mg
- Activity [45]: 3.4 mg
- Activity [46]: 147.9 mg
